Results published in patent US10578622B2, “Sensors for detecting citrate, and method of detecting citrate using the same” (KOREA INSTITUTE OF SCIENCE AND TECHNOLOGY, priority 2017, dated 2020).

Columns and labels:
[1] = Photophysical properties of the citrate detection sensor in the presence and absence of citrate; type: physicochemical
Experimental: Meanwhile, referring to FIG. 5, it can be seen that the citrate detection sensor not subjected to reaction with citrate expresses (blue) fluorescence while emitting weak fluorescence at 346 nm and 458 nm. On the contrary, when citrate is added to the citrate detection sensor including 2 μM of ARBD in the presence of 10 mM of 4-(2-hydroxyethyl)-1-piperazineethane sulfonic acid (HEPES) buffer (2 vol % DMSO) at pH 7.4, it can be seen that strong fluorescence appears at 548 nm together with a dramatic color change from blue to green. […] However, such a change in fluorescence is differentiated preferentially by visualization.

[2] = Job plot and reaction kinetics of the sensor including ARBD with citrate; conditions: reaction with citrate; plot of ln(Fmax−F)/Fmax vs time
Source text: To understand the bonding behavior in the reaction between the citrate detection sensor including ARBD and citrate, the reaction was investigated by using the Job plot.
It can be seen from FIG. 3 that the maximum absorption intensity appears at a molar fraction of 0.5. Thus, it can be seen that a 1:1 complex is formed during the reaction of the citrate detection sensor with citrate. In this case, the reaction kinetics may be expressed by −kt=ln(Fmax−F)/Fmax (wherein k=rate constant, and ‘F’ and ‘Fmax’ represent the fluorescence intensity at time ‘t’). In addition, the maximum intensity reaction value accomplished after the completion of the reaction was calculated by using the plot of ‘ln(Fmax−F)/Fmax vs time’ as shown in FIG. 4.

[3] = Fluorescence intensity as a function of time and pH in the presence of citrate; type: physicochemical
Experimental: Meanwhile, FIG. 6A to FIG. 6C show a graph illustrating a change in fluorescence intensity of the citrate detection sensor as a function of time in the presence of different concentrations of citrate (0-0.9 μM), a graph illustrating fluorescence emission intensity of ARBD and citrate at different pH values and a fluorescence image thereof, respectively.
When optimizing the determination condition in FIG. 6A, it can be seen that the maximum value of fluorescence intensity is accomplished within about 15 minutes. […] Thus, it can be seen that when citrate is introduced to the citrate detection sensor, fluorescence enhancement may be varied with pH.

[4] = High-sensitivity detection of citrate (UV-Vis absorption and fluorescence titration); conditions: pH 7.4, 10 mM HEPES (2 vol % DMSO)
Experimental: The initial citrate tracking ability of the citrate detection sensor including ARBD was evaluated by using UV-Vis absorption spectrometry using ARBD at pH 7.4 in the presence of 10 mM of HEPES buffer solution (2 vol % DMSO). Referring to FIG. 7A to FIG. 7C, it is possible to determine a change in fluorescence spectrum of ARBD when adding citrate at a concentration increasing linearly. […] The absorption intensity at 346 nm is decreased whenever citrate is added and a new peak position appears at 400 nm. In addition, as shown in FIG. 7A to FIG. 7C, it can be seen that an increase in concentration of citrate affects both the fluorescence intensity and the fluorescence wavelength. Further, it can be seen that when the concentration of citrate is increased from 0 to 800 nM for the citrate detection sensor including 2 μM of ARBD at pH 7.4 in the presence of 10 mM of HEPES buffer solution (2 vol % DMSO), the maximum fluorescence intensity is increased linearly to 548 nm. It can be also seen that when the concentration of citrate is increased to 950 nM, the peak at 548 nm is increased linearly while causing no change in wavelength.

[5] = Selectivity and interference of the citrate detection sensor
Experimental: The citrate detection sensor was used to test the selectivity and interference capability to the related similar species for the detection of the other biological carboxylate and citrate. For this test, 1 μM of citrate and 0.5 mM of the other ions were added ((1) sensor, (2) citrate, (3) fumarate, (4) benzoate, (5) glutamate, (6) succinate, (7) malonate, (8) oxalate, (9) acetate, (10) phosphate, (11) sulfite, and (12) sulfate).
Referring to FIG. 8C, it can be seen that even when the other ionic substances have a concentration at least 500 times higher than the concentration of citrate, the citrate detection sensor is reactive selectively with citrate without any interference under high sensitivity. In addition, since it is well known that boronate is a diol sensor, selectivity was also determined for the other materials having a diol moiety, such as hydrogen peroxide (H2O2), glucose, fructose, sucrose, dopamine species, or the like. […] Although the two analytes undergo a reaction in response to the fluorescence intensity, it can be seen that citrate emits green fluorescence and H2O2 emits blue fluorescence. Thus, it can be seen that since only citrate emits green fluorescence in a biological sample at a concentration of ‘μM’ scale, it is possible to detect citrate with ease by the naked eyes through the citrate detection sensor.

PC3 cells = assay: Fluorescence expression of the citrate detection sensor in living PC3 cells; type: cell-based; conditions: ARBD 2 μM, cultured 30 minutes
Experimental: The citrate detection sensor was evaluated in terms of its probe capability in living cells (PC3). […] Particularly, after the citrate sensor including ARBD (2 μM) was cultured for 30 minutes, the image in PC3 cells was observed.
FIG. 9A to FIG. 9C show the fluorescence expressed generally when ARBD is introduced to prostate cancer cells. The image (FIG. 9C) of the expressed fluorescence (FIG. 9A) overlapped with the photo image (FIG. 9B) of the cell lines is shown between them. Then, green fluorescence expressed when adding citrate to the detection sensor inserted to the cell lines was observed. The image (FIG. 9D) after adding citrate, the photo image (FIG. 9E) thereof and their overlapped image (FIG. 9F) are shown in FIG. 9D to FIG. 9F.

Fluorescence quantum yield [1]: 0.18
Maximum absorption wavelength (λabs) [1]: 352
Maximum emission wavelength (λemiss) [1]: 458
fluorescence emission wavelength ([1]; citrate added, 2 μM ARBD, 10 mM HEPES buffer (2 vol % DMSO), pH 7.4, strong fluorescence, color change blue to green): 548 nm
fluorescence emission wavelength ([1]; sensor not subjected to reaction with citrate, weak (blue) fluorescence): 458 nm
pH of highest and stable fluorescence intensity ([3]; ARBD and citrate at different pH values): 7-8 pH
stability of fluorescence intensity after reaction with citrate ([3]; citrate 0-0.9 μM, whole concentration range): maintained constantly to 60 minutes
new absorption peak position on addition of citrate ([4]; citrate 0 to 12 μM): 400 nm
absorption peak ([4]; initial stage, no citrate): 346 nm
Compound: CC1(C)OB(c2ccc(-c3nc(-c4ccc(-c5nc(-c6ccccc6)c(-c6ccccc6)[nH]5)cc4)no3)cc2)OC1(C)C [ARBD, 5-(4-(4,4,5,5-tetramethyl-1,3,2-dioxaborolan-2-yl)phenyl)-3-(4-(4,5-diphenyl-1H-imidazol-2-yl)phenyl)-1,2,4-oxadiazole]
k (reaction rate constant) [2]: 0.148 min⁻¹
time to maximum value of fluorescence intensity ([3]; citrate 0-0.9 μM): ≤ 15 min
detection limit for citrate ([4]; S/N=3, 2 μM ARBD): 10 nM
selectivity: fluorescence enhancement by citrate versus other ions ([5]; 1 μM citrate, 0.5 mM fumarate, benzoate, glutamate, succinate, malonate, oxalate, acetate, phosphate, sulfite, sulfate): only citrate can induce fluorescence enhancement
selectivity versus materials having a diol moiety ([5]; H2O2, glucose, fructose, sucrose, dopamine species, citrate emits green, H2O2 blue fluorescence): reacts only with citrate and hydrogen peroxide
interference of other ionic compounds with detection of citrate ([5]; other species at least 500 times higher concentration than citrate): no effect upon the detection of citrate
fluorescence in cells after adding citrate (PC3 cells): reacts with citrate to express a green color
